Test results reported in patent US11285218B2, “Degradation of bromodomain-containing protein 9 (BRD9) by conjugation of BRD9 inhibitors with E3 ligase ligand and methods of use” (Dana-Farber Cancer Institute, Inc., priority 2016, dated 2022).
pIC50: −log10 of the molar value.

Columns and labels:
CRBN-DDB1 = target: T1, CRBN-DDB1 (Homo sapiens, UniProt Q96SW2); test: CRBN-DDB1 ligand-displacement AlphaScreen; format: binding; details: for pIC50: purified CRBN-DDB1 ligand displacement
T1 construct: made in house; host or cells: Sf9 cells (Invitrogen)
Method: Following a 30 min incubation, 20 uL detection solution containing Streptavidin Donor Beads and Nickel Chelate AlphaLISA® Acceptor Beads diluted to 20 ng/uL in assay buffer was added to each well.

BRD9 [1] = target: T2, BRD9 (Homo sapiens, UniProt Q9H8M2); test: BRD9-ligand displacement AlphaScreen; format: binding
T2 construct: A construct of human BRD9 covering residues 134-0245 in the pET28PP vector; made in house; host or cells: E. coli BL21 (DE3)
T2 sequence (Q9H8M2 134-245 limits assumed): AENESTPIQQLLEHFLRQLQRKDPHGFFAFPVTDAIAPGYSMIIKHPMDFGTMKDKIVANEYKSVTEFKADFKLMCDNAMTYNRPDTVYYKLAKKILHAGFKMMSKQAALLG
Method: BRD9 assays were performed with minimal modifications from the manufacturer's protocol (PerkinElmer, USA). All reagents were diluted in 50 mM HEPES, 150 mM NaCl, 0.1% w/v BSA, 0.01% w/v Tween20, pH 7.5. […] Plates were spun down at 150×g, and 100 nL of DMSO compound stock was added from pre-diluted plates by pin transfer using a Janus Workstation (PerkinElmer, USA). Under low light, a 2× suspension of Ni-coated Acceptor Beads and Streptavidin Donor Beads, was then added at 10 ul/well to a final concentration of 5 μg/ml by EL406 automated liquid handler (Biotek, USA).

[2] = target: BRD9:CRBN-DDB1 protein complex (Homo sapiens, UniProt Q96SW2+Q9H8M2); test: BRD9:CRBN-DDB1 dimerization assay (luminescence); details: for BRD9:CRB9-DDB1 AUC / BRD9:CRB9-DDB1 Cmax: luminescence detection of dimerization assay; for formation of the BRD9:CRBN-DDB1 protein complex: relative to unmodified thalidomide, in words
Method: To measure this activity, a homogenous luminescence assay was developed to report on compound-induced proximity of BRD9 and CRBN.
To detect CRBN-DDBI/BRD4 dimerization, we adapted bead-based AlphaScreen technology. […] Compounds were then pinned at 100 nL per well from DMSO stock. After 1 incubation at room temperature. Nickel Chelate AlphaLISA Acceptor and Glutathione AlphaLISA Donor beads (PerkinElmer) were diluted in assay buffer to 20 μg/mL and added at 20 μl per well.

BRD4(1) = BRD4(1) (Homo sapiens, UniProt O60885); test: BRD4(1) ligand-displacement AlphaScreen; format: binding; design: substituting protein and biotin-probe components for BRD4(1) protein at 20 nM final; His tag (inferred from Ni-coated acceptor beads)
BRD9 [3] = target: T3, BRD9 (Homo sapiens, UniProt Q9H8M2); test: BRD9 degradation / cellular activity (Western blot, cell line not stated); details: cell line not given
T3 sequence (Q9H8M2 1-597): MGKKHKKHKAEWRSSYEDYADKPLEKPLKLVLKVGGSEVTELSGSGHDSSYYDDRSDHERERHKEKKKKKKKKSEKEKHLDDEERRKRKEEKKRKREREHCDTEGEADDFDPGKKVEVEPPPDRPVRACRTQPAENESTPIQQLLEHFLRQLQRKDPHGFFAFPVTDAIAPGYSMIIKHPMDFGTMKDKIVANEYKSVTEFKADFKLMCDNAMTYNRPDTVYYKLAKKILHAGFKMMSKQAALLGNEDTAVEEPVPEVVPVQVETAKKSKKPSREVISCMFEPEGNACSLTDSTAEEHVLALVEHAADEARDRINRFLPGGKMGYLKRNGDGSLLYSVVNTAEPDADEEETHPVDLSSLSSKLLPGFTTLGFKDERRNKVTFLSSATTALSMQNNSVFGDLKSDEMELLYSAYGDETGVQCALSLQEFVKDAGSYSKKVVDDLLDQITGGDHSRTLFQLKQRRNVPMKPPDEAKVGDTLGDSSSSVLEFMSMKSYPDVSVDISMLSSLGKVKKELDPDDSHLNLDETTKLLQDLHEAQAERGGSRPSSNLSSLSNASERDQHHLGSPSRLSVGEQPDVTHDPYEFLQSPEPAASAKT

BRD9 [4] = target: T3, BRD9; test: BRD9 immunoblot in MOLM-13; details: MOLM-13, 4 hour treatment, indicated concentrations; in words
Method: In additional experiments, cells were washed with PBS, before being lysed in RIPA buffer supplemented with 1×HALT™ protease inhibitor cocktail (Thermo Scientific) for 10 min on ice, followed by low-amplitude sonication for 10 seconds at 4° C. […] In soluble material was removed by centrifugation at 20,000×g for 20 min before protein content was quantified by BCA assay (Pierce). […] Blots were imaged using fluorescence-labeled secondary antibodies (LI-COR) on the OdysseyCLxImager (LI-COR).

T1 sequence (Q96SW2 whole entry): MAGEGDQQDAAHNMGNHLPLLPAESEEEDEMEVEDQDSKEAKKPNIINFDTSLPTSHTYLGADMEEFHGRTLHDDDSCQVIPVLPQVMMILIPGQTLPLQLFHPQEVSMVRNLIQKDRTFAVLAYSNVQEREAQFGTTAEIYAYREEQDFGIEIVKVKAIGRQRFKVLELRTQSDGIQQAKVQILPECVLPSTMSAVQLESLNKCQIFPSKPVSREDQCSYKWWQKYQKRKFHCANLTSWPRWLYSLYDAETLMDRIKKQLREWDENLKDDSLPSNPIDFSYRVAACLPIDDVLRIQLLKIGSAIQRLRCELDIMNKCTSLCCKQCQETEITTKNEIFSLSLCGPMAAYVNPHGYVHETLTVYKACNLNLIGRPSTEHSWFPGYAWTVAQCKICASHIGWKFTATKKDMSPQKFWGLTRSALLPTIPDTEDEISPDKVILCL
T1 sequence (Q16531 whole entry partner): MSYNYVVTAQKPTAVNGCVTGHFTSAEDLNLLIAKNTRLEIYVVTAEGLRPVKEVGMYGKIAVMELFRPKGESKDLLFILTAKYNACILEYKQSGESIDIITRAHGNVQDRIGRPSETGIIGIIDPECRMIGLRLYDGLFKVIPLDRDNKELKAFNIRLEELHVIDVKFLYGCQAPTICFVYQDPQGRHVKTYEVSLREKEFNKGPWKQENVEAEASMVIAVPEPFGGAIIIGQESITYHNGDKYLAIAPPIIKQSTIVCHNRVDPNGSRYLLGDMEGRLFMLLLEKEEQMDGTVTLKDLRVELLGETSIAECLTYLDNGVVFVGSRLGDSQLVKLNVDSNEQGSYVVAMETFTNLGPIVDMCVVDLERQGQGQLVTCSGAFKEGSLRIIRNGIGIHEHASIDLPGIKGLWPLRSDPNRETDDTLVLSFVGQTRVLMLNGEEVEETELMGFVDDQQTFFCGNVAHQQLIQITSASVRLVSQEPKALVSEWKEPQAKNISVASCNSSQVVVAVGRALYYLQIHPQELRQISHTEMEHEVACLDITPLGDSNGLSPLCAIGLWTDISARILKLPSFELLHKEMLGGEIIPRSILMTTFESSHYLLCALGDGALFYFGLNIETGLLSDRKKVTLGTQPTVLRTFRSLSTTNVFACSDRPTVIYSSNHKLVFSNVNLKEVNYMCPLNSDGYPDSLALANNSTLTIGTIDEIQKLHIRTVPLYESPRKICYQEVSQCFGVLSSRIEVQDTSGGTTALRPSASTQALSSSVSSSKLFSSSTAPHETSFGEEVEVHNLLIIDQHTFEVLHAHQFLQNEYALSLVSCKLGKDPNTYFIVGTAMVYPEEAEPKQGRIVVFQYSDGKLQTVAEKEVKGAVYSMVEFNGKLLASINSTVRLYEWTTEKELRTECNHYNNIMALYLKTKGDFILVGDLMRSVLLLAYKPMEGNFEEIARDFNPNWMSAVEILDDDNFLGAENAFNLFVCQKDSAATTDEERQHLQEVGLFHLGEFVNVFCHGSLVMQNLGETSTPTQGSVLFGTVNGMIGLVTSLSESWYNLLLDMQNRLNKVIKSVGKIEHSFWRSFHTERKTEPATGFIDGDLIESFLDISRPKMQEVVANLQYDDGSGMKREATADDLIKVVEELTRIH
Chain of BRD9:CRBN-DDB1 protein complex (Q96SW2 whole entry, one chain of several): as the sequence (Q96SW2 whole entry) above
Chain of BRD9:CRBN-DDB1 protein complex (Q16531 whole entry partner, one chain of several): as the sequence (Q16531 whole entry partner) above

SMILES | pIC50 (CRBN-DDB1) | pIC50 (BRD9 [1]) | BRD9:CRB9-DDB1 AUC [2] | BRD9:CRB9-DDB1 Cmax [2] [nM] | formation of the BRD9:CRBN-DDB1 protein complex [2] | pIC50 (BRD4(1)) | BRD9 degradation / cellular potency, in words (BRD9 [3]) | BRD9:CRBN-DDB1 dimerization, comparison in words [2] | BRD9 protein level (immunoblot) (BRD9 [4]) | CRBN-DDB1 affinity, in words (CRBN-DDB1; comparison of phthalimide linkages)
COc1cc(-c2cn(C)c(=O)c3cc(C(=N)NC4CCS(=O)(=O)CC4)sc23)ccc1OCC(=O)NCCCCNC(=O)COc1cccc2c1C(=O)N(C1CCC(=O)NC1=O)C2=O (stereo not shown) [Compound I-1] | 7.31 | 7.87 | 44270 | 42.5 | significantly induce formation of the complex | 5.42 | – | – | – | –
COc1cc(-c2cn(C)c(=O)c3cnccc23)cc(OC)c1CN(C)CC(=O)NCCCCCCNc1ccc2c(c1)C(=O)N(C1CCC(=O)NC1=O)C2=O (stereo not shown) [Compound I-12] | 8.07 | 7.25 | 60256 | 8.39 | significantly induce formation of the complex | < 4.30 | – | – | – | –
COc1cc(-c2cn(C)c(=O)c3cnccc23)cc(OC)c1CN(C)CC(=O)NCCCCCCCCNc1cccc2c1C(=O)N(C1CCC(=O)NC1=O)C2=O (stereo not shown) [Compound I-15] | 8.08 | 7.08 | 139380 | 8.22 | significantly induce formation of the complex | < 4.30 | – | – | – | –
COc1cc(-c2cn(C)c(=O)c3cnccc23)cc(OC)c1CN(C)CC(=O)NCCCCCCCCNC(=O)COc1cccc2c1C(=O)N(C1CCC(=O)NC1=O)C2=O (stereo not shown) [Compound I-24] | 7.83 | 7.32 | 58563 | 27.3 | significantly induce formation of the complex | < 4.30 | – | – | – | –
COc1cc(-c2cn(C)c(=O)c3cc(C(=N)NC4CCS(=O)(=O)CC4)sc23)ccc1OCC(=O)NCCCCCCCCNc1ccc2c(c1)C(=O)N(C1CCC(=O)NC1=O)C2=O (stereo not shown) [Compound I-9] | 7.75 | 7.94 | 46614 | 33.7 | significantly induce formation of the complex | 5.95 | superior | superior | – | –
COc1cc(-c2cn(C)c(=O)c3cc(C(=N)NC4CCS(=O)(=O)CC4)sc23)ccc1OCC(=O)NCCCCCCCCNc1cccc2c1C(=O)N(C1CCC(=O)NC1=O)C2=O (stereo not shown) [Compound I-5] | 7.97 | 7.81 | 67227 | 37.4 | significantly induce formation of the complex | 5.81 | – | – | effectively downregulate BRD9 over a broad range of concentrations | –
COc1cc(-c2cn(C)c(=O)c3cnccc23)cc(OC)c1CN(C)CC(=O)NCCOCCOCCOCC(=O)N[C@@H](C(=O)N1C[C@@H](O)C[C@@H]1C(=O)NCc1ccc(-c2scnc2C)cc1)C(C)(C)C [Compound I-23] | – | 7.36 | – | – | – | < 4.30 | – | – | – | –
COc1cc(-c2cn(C)c(=O)c3cc(C(=N)NC4CCS(=O)(=O)CC4)sc23)ccc1OCC(=O)N1CCC(C2CCN(C(=O)COc3cccc4c3C(=O)N(C3CCC(=O)NC3=O)C4=O)CC2)CC1 (stereo not shown) [Compound I-7] | 7.80 | 7.90 | 107794 | 54.0 | significantly induce formation of the complex | 5.82 | significant improvement | significant improvement | – | –
COc1cc(-c2cn(C)c(=O)c3cc(C(=N)NC4CCS(=O)(=O)CC4)sc23)ccc1OCC(=O)NCCCOCCOCCOCCCNC(=O)COc1cccc2c1C(=O)N(C1CCC(=O)NC1=O)C2=O (stereo not shown) [Compound I-3] | 7.31 | 7.44 | 50182 | 44.9 | significantly induce formation of the complex | 5.50 | – | reduced this activity | – | –
COc1cc(-c2cn(C)c(=O)c3cc(C(=N)NC4CCS(=O)(=O)CC4)sc23)ccc1OCC(=O)NCCCCCCCCNC(=O)COc1cccc2c1C(=O)N(C1CCC(=O)NC1=O)C2=O (stereo not shown) [Compound I-2] | 7.36 | 7.72 | 71477 | 95.1 | significantly induce formation of the complex | 5.47 | – | improved dimerization relative to the short four-carbon linked compound I-1 | Marked protein loss | –
COc1cc(-c2cn(C)c(=O)c3cc(C(=N)NC4CCS(=O)(=O)CC4)sc23)ccc1OCC(=O)NCCCCCCOc1cccc2c1C(=O)N(C1CCC(=O)NC1=O)C2=O (stereo not shown) [Compound I-8] | 7.70 | 7.52 | 144813 | 111 | significantly induce formation of the complex | 5.15 | – | further improved dimerization relative to compound I-2 | Marked protein loss | slightly improved binding over acetamide ethers I-1 and I-2
